Assay results taken from PMC2813863, “In Vivo Evaluation of α7 Nicotinic Acetylcholine Receptor Agonists [^11C]A-582941 and [^11C]A-844606 in Mice and Conscious Monkeys” (PLoS ONE, 2010).
Where “and” joins values, the source holds several entries; their conditions need not be identical. Identical values can stand only once. Like-named read-outs stand apart in the source and are kept apart here.

Experiments:
[1] = target: α7 nAChRs (Mus musculus, UniProt P49582); details: in vivo
Procedure: In the other group of mice, a blocking experiment to determine the α7 nAChRs-specific regional brain uptake of the tracers was carried out. Each tracer (2 MBq/0.055–0.096 nmol) was co-injected with each of the following blockers into mice, and 15 ([^11C]A-582941) or 30 ([^11C]A-844606) min later the mice were killed (n = 5) and the tissue uptake of ^11C was expressed as the %ID/g. […] Each blocker was dissolved in 1N HCl to 40 mg/ml and diluted up to 0.4 mg/ml with saline. The co-injected dose was 1 mg/kg. In the control mice the same amount of 0.01 N HCl in saline was co-injected.

[2] = target: α4β2; details: read-out: K i α4β2; cited from earlier work
[3] = target: α4β2; details: read-out: K i α4β2; cited from earlier work; remark: listed apart in the source
[4] = target: 5-HT3 receptors; experiment: Displacement of [^3H]-BRL 43694 (Granisetron) binding
[5] = target: heteromeric α4β2 subtypes; details: rat brain membranes; read-out: K i, [^3H]cytisine binding; cited from earlier work
[6] = system: >75 binding sites; details: 10 µM, exception 5-HT3 receptors; cited from earlier work
[7] = system: 5-HT3 receptors; details: cited from earlier work
[8] = cited from earlier work
[9] = system: α7 nAChRs; details: read-out: IC50, displacement of [^3H]MLA binding; cited from earlier work
[10] = system: α4β2 nAChRs; details: read-out: IC50, displacement of [^3H]cytisine binding to α4β2 nAChRs; cited from earlier work

Chain of α7 nAChRs (Mus musculus, UniProt P49582) (P49582 23-502): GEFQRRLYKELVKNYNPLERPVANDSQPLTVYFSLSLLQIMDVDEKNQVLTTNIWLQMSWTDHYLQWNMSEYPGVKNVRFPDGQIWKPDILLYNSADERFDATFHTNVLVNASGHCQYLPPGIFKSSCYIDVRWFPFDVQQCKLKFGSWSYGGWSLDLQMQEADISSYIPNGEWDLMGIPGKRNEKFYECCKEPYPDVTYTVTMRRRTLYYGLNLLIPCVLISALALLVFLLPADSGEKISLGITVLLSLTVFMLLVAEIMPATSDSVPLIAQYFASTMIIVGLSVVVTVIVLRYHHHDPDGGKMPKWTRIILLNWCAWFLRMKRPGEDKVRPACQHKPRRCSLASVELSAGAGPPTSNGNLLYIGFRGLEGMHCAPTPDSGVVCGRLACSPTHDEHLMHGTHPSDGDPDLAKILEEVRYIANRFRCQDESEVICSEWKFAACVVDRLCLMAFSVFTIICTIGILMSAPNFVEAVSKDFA

| Structure (SMILES) | % Injected dose/g tissue, Blood [1] | % Injected dose/g tissue, Cerebellum [1] | % Injected dose/g tissue, Cerebral cortex [1] | % Injected dose/g tissue, Hippocampus [1] | % Injected dose/g tissue, Hypothalamus [1] | % Injected dose/g tissue, Medulla oblongata [1] | % Injected dose/g tissue, Midbrain [1] | % Injected dose/g tissue, Striatum [1] | % Injected dose/g tissue, Whole brain [1] | other results |
| --- | --- | --- | --- | --- | --- | --- | --- | --- | --- | --- |
| c1cncc(OC[C@@H]2CCN2)c1 [A-85380, 3-(2(S)-azetidynilmethoxy)pyridine] | 0.85±0.06 % Injected dose/g tissue and 0.54±0.12 % Injected dose/g tissue | 3.76±0.50 % Injected dose/g tissue and 6.22±1.26 % Injected dose/g tissue | 4.53±0.61 % Injected dose/g tissue and 7.57±1.48 % Injected dose/g tissue | 3.92±0.54 % Injected dose/g tissue and 5.58±1.26 % Injected dose/g tissue | 3.97±0.65 % Injected dose/g tissue and 5.00±0.96 % Injected dose/g tissue | 3.99±0.49 % Injected dose/g tissue and 5.46±1.15 % Injected dose/g tissue | 4.52±0.68 % Injected dose/g tissue and 6.84±1.71 % Injected dose/g tissue | 4.33±0.75 % Injected dose/g tissue and 6.47±1.38 % Injected dose/g tissue | 4.26±0.57 % Injected dose/g tissue and 6.64±1.33 % Injected dose/g tissue | Ki [2]: 0.04 nM; Ki [3]: 0.05 nM |
| CN1CC2CN(c3ccc(-c4ccccc4)nn3)CC2C1 (stereo not shown) [A-582941, 2-methyl-5-[6-phenylpyridazine-3-yl]octahydropyrrolo[3,4-c]pyrrole] | 0.61±0.07 % Injected dose/g tissue | 5.17±0.97 % Injected dose/g tissue | 8.38±1.22 % Injected dose/g tissue | 6.48±1.31 % Injected dose/g tissue | 4.76±1.17 % Injected dose/g tissue | 5.58±1.26 % Injected dose/g tissue | 5.80±1.46 % Injected dose/g tissue | 6.81±1.05 % Injected dose/g tissue | 6.71±1.09 % Injected dose/g tissue | K i for 5-HT3 receptors relative to that for α7 nAChRs [4]: ~15 fold; Ki [5]: > 100000 nM; displacement of binding of >75 binding sites [6]: did not show significant displacement; displacement of [^3H]-BRL 43694 (Granisetron) binding ([7]; at 10 µM): > 85%; Ki ([7]; read-out: K i for 5-HT3 receptors): 154 nM; clog P [8]: 2.3; pKa, N-methylated tertiary amine [8]: 8.75; pKa, aminopyridazine [8]: 4.44; log D at pH 7.4 ([8]; pH 7.4): 1.0 |
| CN1CC2CN(c3ccc4oc5ccccc5c(=O)c4c3)CC2C1 (stereo not shown) [A-844606, 2-(5-methyl-hexahydro-pyrrolo[3,4-c]pyrrol-2-yl)-xanthene-9-one] | 0.91±0.10 % Injected dose/g tissue | 3.62±0.10 % Injected dose/g tissue | 4.78±0.19 % Injected dose/g tissue | 4.20±0.55 % Injected dose/g tissue | 3.50±0.87 % Injected dose/g tissue | 4.04±0.19 % Injected dose/g tissue | 4.29±0.11 % Injected dose/g tissue | 3.94±0.89 % Injected dose/g tissue | 4.27±0.18 % Injected dose/g tissue | IC50 [9]: 11 nM; IC50 [10]: > 30000 nM |
